In ChEMBL document CHEMBL4507283, “Data for DCP probe BI-1935” (2021):

Assays:
[1] = target: Serine/threonine-protein kinase RIO3 (Homo sapiens) (UniProt O14730); settings: Compound concentration 1000.0 nM
[2] = target: Ephrin type-A receptor 2 (Homo sapiens) (UniProt P29317); settings: Compound concentration 1000.0 nM
[3] = target: Serine/threonine-protein kinase pim-3 (Homo sapiens) (UniProt Q86V86); settings: Compound concentration 1000.0 nM
[4] = system: Mast/stem cell growth factor receptor Kit (Homo sapiens), P10721 [V559D,T670I]; settings: Compound concentration 1000.0 nM
[5] = target: Serine/threonine-protein kinase D2 (Homo sapiens) (UniProt Q9BZL6); settings: Compound concentration 1000.0 nM
[6] = target: Mitogen-activated protein kinase kinase kinase 7 (Homo sapiens) (UniProt O43318); settings: Compound concentration 1000.0 nM
[7] = target: Tyrosine-protein kinase TXK (Homo sapiens) (UniProt P42681); settings: Compound concentration 1000.0 nM
[8] = target: D(4) dopamine receptor (Homo sapiens) (UniProt P21917); settings: Compound concentration 10.0 uM
[9] = target: Cyclin-dependent kinase 9 (Homo sapiens) (UniProt P50750); settings: Compound concentration 1000.0 nM
[10] = target: Tyrosine-protein kinase Fyn (Homo sapiens) (UniProt P06241); settings: Compound concentration 1000.0 nM
[11] = target: Mitogen-activated protein kinase kinase kinase 10 (Homo sapiens) (UniProt Q02779); settings: Compound concentration 1000.0 nM
Mitogen-activated protein kinase kinase kinase 10 (Homo sapiens), sequence (Q02779 whole entry, looked up): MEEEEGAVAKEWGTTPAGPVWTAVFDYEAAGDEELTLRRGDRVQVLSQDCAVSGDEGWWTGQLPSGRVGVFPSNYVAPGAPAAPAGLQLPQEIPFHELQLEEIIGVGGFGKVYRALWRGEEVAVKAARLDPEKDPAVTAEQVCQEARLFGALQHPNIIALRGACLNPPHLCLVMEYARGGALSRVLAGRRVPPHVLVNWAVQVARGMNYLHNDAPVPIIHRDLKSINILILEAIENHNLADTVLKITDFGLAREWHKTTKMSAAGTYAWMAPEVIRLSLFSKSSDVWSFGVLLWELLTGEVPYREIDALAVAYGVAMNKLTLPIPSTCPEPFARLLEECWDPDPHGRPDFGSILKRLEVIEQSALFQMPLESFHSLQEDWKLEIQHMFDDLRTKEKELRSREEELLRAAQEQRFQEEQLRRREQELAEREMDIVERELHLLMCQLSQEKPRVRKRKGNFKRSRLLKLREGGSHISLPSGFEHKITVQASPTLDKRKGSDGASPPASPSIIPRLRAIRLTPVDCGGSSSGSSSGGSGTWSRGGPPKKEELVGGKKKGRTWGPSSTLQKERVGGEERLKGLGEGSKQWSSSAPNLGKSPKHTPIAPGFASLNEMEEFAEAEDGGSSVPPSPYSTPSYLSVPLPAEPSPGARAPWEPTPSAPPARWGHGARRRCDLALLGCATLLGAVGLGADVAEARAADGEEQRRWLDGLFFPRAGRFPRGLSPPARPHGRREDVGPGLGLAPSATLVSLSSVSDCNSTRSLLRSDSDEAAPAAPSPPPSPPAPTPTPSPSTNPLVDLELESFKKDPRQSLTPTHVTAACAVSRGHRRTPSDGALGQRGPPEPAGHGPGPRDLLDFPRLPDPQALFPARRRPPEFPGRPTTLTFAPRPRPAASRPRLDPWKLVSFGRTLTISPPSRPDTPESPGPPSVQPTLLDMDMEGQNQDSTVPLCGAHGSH

[12] = target: Receptor-interacting serine/threonine-protein kinase 4 (Homo sapiens) (UniProt P57078); settings: Compound concentration 1000.0 nM
Receptor-interacting serine/threonine-protein kinase 4 (Homo sapiens), sequence (P57078 whole entry): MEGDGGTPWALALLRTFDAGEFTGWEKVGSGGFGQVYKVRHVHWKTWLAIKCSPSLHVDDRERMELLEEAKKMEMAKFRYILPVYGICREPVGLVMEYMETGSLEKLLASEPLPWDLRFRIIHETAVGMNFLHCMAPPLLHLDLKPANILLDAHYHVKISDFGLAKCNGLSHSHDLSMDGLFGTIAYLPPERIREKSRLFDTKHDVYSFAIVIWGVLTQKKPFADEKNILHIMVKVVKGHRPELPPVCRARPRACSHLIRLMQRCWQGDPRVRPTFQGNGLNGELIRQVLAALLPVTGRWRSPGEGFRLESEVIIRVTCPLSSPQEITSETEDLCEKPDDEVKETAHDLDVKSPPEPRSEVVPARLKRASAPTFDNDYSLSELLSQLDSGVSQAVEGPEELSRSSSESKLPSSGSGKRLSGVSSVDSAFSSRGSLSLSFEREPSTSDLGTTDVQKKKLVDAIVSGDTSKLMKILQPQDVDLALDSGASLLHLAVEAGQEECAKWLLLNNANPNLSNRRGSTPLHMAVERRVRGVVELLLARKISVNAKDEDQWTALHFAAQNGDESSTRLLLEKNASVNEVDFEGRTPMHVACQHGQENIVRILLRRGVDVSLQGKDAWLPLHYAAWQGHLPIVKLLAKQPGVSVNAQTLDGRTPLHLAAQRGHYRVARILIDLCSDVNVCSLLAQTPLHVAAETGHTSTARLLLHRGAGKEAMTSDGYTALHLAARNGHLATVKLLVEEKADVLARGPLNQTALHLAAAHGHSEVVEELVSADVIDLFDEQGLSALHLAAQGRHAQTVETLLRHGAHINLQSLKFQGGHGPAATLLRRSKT

[13] = target: Interleukin-1 receptor-associated kinase 1 (Homo sapiens) (UniProt P51617); settings: Compound concentration 1000.0 nM
[14] = target: Glycogen synthase kinase-3 beta (Homo sapiens) (UniProt P49841); settings: Compound concentration 1000.0 nM
Glycogen synthase kinase-3 beta (Homo sapiens), sequence (P49841 whole entry, looked up): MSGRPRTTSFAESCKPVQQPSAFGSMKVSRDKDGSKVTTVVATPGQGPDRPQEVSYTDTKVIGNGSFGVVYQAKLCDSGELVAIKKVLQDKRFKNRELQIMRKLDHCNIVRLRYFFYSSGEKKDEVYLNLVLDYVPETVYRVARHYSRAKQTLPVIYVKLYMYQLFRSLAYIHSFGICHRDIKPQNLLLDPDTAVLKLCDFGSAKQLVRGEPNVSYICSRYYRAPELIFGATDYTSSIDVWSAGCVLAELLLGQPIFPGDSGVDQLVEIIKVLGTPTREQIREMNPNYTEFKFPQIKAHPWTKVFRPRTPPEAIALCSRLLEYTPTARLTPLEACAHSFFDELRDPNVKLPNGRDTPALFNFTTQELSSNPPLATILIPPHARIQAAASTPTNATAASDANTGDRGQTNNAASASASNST

[15] = target: Tyrosine-protein kinase JAK1 (Homo sapiens) (UniProt P23458); settings: Compound concentration 1000.0 nM
[16] = target: 5-hydroxytryptamine receptor 6 (Homo sapiens) (UniProt P50406); settings: Compound concentration 10.0 uM
[17] = target: Phosphatidylinositol 4-phosphate 5-kinase type-1 alpha (Homo sapiens) (UniProt Q99755); settings: Compound concentration 1000.0 nM
[18] = target: Peripheral plasma membrane protein CASK (Homo sapiens) (UniProt O14936); settings: Compound concentration 1000.0 nM
[19] = target: Bone morphogenetic protein receptor type-2 (Homo sapiens) (UniProt Q13873); settings: Compound concentration 1000.0 nM
[20] = target: Leukotriene A-4 hydrolase (Cavia porcellus) (UniProt P19602); assay: LTA4HYD Eurofins-Panlabs selectivity data (BI); settings: Compound concentration 10.0 uM
[21] = target: Vasopressin V1a receptor (Homo sapiens) (UniProt P37288); assay: V1A/HU Eurofins-Panlabs selectivity data (BI); settings: Compound concentration 10.0 uM
[22] = target: Cyclin-dependent kinase 5 (Homo sapiens) (UniProt Q00535); settings: Compound concentration 1000.0 nM
[23] = target: Serine/threonine-protein kinase PAK 4 (Homo sapiens) (UniProt O96013); settings: Compound concentration 1000.0 nM
[24] = system: Hepatocyte growth factor receptor (Homo sapiens), P08581 [M1250T]; settings: Compound concentration 1000.0 nM
[25] = target: Serine/threonine-protein kinase 16 (Homo sapiens) (UniProt O75716); settings: Compound concentration 1000.0 nM
Serine/threonine-protein kinase 16 (Homo sapiens), sequence (O75716 whole entry): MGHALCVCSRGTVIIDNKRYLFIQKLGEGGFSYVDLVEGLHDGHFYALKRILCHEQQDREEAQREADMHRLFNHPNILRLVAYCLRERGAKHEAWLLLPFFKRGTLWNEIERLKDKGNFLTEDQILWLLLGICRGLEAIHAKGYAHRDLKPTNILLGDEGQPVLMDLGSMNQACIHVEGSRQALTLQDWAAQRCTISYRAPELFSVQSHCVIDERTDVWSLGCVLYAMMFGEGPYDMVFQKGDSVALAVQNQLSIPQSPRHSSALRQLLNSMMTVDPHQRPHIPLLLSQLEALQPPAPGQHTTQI

[26] = target: Ribosomal protein S6 kinase alpha-1 (Homo sapiens) (UniProt Q15418); settings: Compound concentration 1000.0 nM
[27] = target: Cyclin-dependent kinase-like 3 (Homo sapiens) (UniProt Q8IVW4); settings: Compound concentration 1000.0 nM
[28] = target: Serine/threonine-protein kinase WNK4 (Homo sapiens) (UniProt Q96J92); settings: Compound concentration 1000.0 nM
[29] = target: SRSF protein kinase 3 (Homo sapiens) (UniProt Q9UPE1); settings: Compound concentration 1000.0 nM
[30] = system: Tyrosine-protein kinase ABL1 (Homo sapiens), P00519 [Y253F]; settings: Compound concentration 1000.0 nM
[31] = target: Sodium-dependent dopamine transporter (Homo sapiens, UniProt Q01959); settings: Compound concentration 10.0 uM
Rattus norvegicus = species on record: Rattus norvegicus; settings: Compound concentration 10.0 uM
[32] = target: Serine/threonine-protein kinase TAO2 (Homo sapiens) (UniProt Q9UL54); settings: Compound concentration 1000.0 nM
[33] = target: Rhodopsin kinase GRK7 (Homo sapiens) (UniProt Q8WTQ7); settings: Compound concentration 1000.0 nM
[34] = target: Insulin receptor-related protein (Homo sapiens) (UniProt P14616); settings: Compound concentration 1000.0 nM
Insulin receptor-related protein (Homo sapiens), sequence (P14616 27-742 limits assumed): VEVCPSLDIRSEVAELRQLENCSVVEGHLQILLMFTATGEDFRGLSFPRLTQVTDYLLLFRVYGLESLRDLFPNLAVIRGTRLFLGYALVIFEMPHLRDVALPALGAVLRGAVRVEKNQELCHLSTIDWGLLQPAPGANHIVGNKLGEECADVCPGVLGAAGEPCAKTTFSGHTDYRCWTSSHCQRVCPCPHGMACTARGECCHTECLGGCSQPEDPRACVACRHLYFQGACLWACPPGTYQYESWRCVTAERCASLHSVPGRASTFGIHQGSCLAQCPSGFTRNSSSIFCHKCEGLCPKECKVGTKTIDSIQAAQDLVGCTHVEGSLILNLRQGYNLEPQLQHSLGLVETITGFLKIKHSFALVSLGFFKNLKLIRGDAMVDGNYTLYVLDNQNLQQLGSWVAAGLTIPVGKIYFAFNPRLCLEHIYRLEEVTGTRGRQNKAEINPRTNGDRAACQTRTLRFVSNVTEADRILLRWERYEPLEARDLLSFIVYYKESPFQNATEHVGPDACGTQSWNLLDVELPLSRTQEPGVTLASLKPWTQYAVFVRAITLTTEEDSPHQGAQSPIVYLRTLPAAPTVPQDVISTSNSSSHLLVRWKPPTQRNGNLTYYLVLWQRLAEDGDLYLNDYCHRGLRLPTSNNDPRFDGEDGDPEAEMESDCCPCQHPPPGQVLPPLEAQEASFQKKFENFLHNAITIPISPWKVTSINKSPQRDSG
Insulin receptor-related protein (Homo sapiens), sequence (P14616 747-1297 limits assumed): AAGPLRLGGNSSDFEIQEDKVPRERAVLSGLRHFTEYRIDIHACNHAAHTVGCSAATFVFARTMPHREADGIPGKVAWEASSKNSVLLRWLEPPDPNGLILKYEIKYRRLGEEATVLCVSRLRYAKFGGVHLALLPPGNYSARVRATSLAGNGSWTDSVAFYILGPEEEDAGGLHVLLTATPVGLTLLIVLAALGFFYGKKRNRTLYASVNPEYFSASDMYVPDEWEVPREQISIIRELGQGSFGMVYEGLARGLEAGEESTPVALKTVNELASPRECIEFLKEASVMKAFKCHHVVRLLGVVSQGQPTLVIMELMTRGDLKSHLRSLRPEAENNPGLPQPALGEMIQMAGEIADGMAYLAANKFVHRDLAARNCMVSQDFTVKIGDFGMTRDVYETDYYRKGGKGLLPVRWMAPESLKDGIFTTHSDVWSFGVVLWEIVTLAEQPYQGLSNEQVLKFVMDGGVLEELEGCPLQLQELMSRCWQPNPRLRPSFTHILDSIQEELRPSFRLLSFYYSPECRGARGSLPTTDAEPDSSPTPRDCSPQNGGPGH

[35] = target: Sigma non-opioid intracellular receptor 1 (Homo sapiens, UniProt Q99720); assay: GPCRScan assay: inhibition of Sigma 1; design: radioligand conc. used [nm] 4.0 – 5.0, parental cells HEKT
[36] = target: Focal adhesion kinase 1 (Homo sapiens) (UniProt Q05397); settings: Compound concentration 1000.0 nM
[37] = target: Mitogen-activated protein kinase kinase kinase 5 (Homo sapiens) (UniProt Q99683); settings: Compound concentration 1000.0 nM
[38] = system: Mast/stem cell growth factor receptor Kit (Homo sapiens), P10721 [D816V]; settings: Compound concentration 1000.0 nM
[39] = target: Tyrosine-protein kinase ABL1 (Homo sapiens) (UniProt P00519); settings: Compound concentration 1000.0 nM
[40] = target: Mitogen-activated protein kinase 10 (Homo sapiens) (UniProt P53779); settings: Compound concentration 1000.0 nM
[41] = target: Mitogen-activated protein kinase 11 (Homo sapiens) (UniProt Q15759); settings: Compound concentration 1000.0 nM
[42] = target: Tyrosine-protein kinase Mer (Homo sapiens) (UniProt Q12866); settings: Compound concentration 1000.0 nM
[43] = target: Testis-specific serine/threonine-protein kinase 3 (Homo sapiens) (UniProt Q96PN8); settings: Compound concentration 1000.0 nM
[44] = target: Ribosomal protein S6 kinase alpha-3 (Homo sapiens) (UniProt P51812); settings: Compound concentration 1000.0 nM
[45] = target: Fibroblast growth factor receptor 1 (Homo sapiens) (UniProt P11362); settings: Compound concentration 1000.0 nM
Fibroblast growth factor receptor 1 (Homo sapiens), sequence (P11362 22-822 limits assumed): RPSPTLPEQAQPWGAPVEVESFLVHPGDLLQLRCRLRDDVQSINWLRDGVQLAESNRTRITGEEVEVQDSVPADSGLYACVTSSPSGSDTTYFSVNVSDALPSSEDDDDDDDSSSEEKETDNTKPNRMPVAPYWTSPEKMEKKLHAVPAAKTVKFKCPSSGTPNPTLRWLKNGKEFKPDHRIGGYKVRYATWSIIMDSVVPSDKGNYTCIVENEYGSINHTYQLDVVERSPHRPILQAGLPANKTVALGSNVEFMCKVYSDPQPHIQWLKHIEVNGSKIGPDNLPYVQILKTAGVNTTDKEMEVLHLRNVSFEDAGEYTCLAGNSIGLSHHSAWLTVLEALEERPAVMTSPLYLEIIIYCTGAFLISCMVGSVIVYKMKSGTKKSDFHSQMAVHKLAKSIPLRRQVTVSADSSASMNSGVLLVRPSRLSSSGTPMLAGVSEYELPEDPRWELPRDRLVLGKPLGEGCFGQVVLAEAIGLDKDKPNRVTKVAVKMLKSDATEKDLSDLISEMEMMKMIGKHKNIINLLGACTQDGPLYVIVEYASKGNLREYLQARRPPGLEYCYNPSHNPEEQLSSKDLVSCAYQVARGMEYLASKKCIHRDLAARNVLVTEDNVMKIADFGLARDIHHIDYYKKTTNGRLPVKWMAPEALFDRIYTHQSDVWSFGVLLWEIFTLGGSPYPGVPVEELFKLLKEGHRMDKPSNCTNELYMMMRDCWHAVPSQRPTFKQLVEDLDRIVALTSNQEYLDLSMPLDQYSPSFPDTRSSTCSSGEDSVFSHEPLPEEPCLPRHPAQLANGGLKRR

CCOCCn1cc(C(=O)Nc2ccc(-n3nc(-c4cccnc4)cc3C(F)(F)F)cn2)ccc1=O [BI 1935]
residual activity [1]: 88%
residual activity [2]: 93%
residual activity [3]: 90%
residual activity [4]: 100%
residual activity [5]: 100%
residual activity [6]: 90%
residual activity [7]: 81%
inhibition [8]: -3.89%
residual activity [9]: 97%
residual activity [10]: 53%
residual activity [11]: 100%
residual activity [12]: 81%
residual activity [13]: 84%
residual activity [14]: 86%
residual activity [15]: 37%
inhibition [16]: 0.656%
residual activity [17]: 100%
residual activity [18]: 85%
residual activity [19]: 100%
residual activity [20]: 111%
residual activity [21]: 98%
residual activity [22]: 100%
residual activity [23]: 100%
residual activity [24]: 96%
residual activity [25]: 92%
residual activity [26]: 100%
residual activity [27]: 84%
residual activity [28]: 91%
residual activity [29]: 100%
residual activity [30]: 73%
inhibition [31]: 82.1%
inhibition (Rattus norvegicus): -5.52%
residual activity [32]: 75%
residual activity [33]: 88%
residual activity [34]: 100%
Ki [35]: 6.28 µM
residual activity [36]: 100%
residual activity [37]: 100%
residual activity [38]: 92%
residual activity [39]: 94%
residual activity [40]: 100%
residual activity [41]: 80%
residual activity [42]: 83%
residual activity [43]: 100%
residual activity [44]: 87%
residual activity [45]: 100%
